Measured values as given in patent US20050026949A1, “Methods of therapeutic treatment using amounts of retinoids without regard to body weight” (Allergan, Inc., priority 2003, published 2005).

Experiments:
RARs = test: Activation of RARs; type: cell-based
RXRs = test: Activation of RXRs; type: cell-based
[1] = oral, cited from earlier work; for bioavailability in the presence of food: Colburn et al
[2] = tested on: patients in the studies of acitretin; conditions: published data (N = 525); cited from earlier work
[3] = in vivo; cited from earlier work
[4] = cited from earlier work
[5] = tested on: patients in the studies of isotretinoin; conditions: published data (N = 525); cited from earlier work
sebaceous glands = conditions: published reports (Geiger); cited from earlier work
[6] = Food effect on pharmacokinetics of tazarotenic acid after oral tazarotene (Example 1); type: in vivo, human; conditions: 6.3 mg oral tazarotene
Method: For the purposes of this application, the bioavailability of a drug may be based on the human pharmokinetic parameters of maximum blood concentration (Cmax) and Area under the blood concentration-time curve (AUC).
(§1) The LC-MS/MS test for simultaneous detection of tazarotene and tazarotenic acid may be run as follows. One ml of plasma (EDTA-treated) is diluted with 1.0 ml of water. Diluted plasma is extracted using solid phase extraction (SPE) on a C18 cartridge. The eluate is evaporated, reconstituted in a water/methanol-based mobile phase, and injected onto a 4.6×50 mm, 3 μm pore size C-8 reverse phase high pressure liquid chromatography (HPLC) column (Agilent, Wilmington, Del.). Compounds are gradient-eluted at 1.2 mL/min and detected using an API 3000 triple quadrupole mass spectrometer with an Atmospheric Pressure Chemical Ionization (APCI) source (PE-Sciex, Concord, Ontario, Canada). Molecular reaction monitoring enhances the sensitivity and selectivity of this assay by collisionally dissociating the protonated molecules for the analyte and an internal standard thereby forming the product ions. The specific precursor-product ion pair monitored are m/z 352→324 for tazarotene, m/z 359→331 for the tazarotene internal standard, m/z 324→294 for tazarotenic acid, and m/z 331+298 for the tazarotenic acid internal standard. The lower limit of quantitation at assay range tested is 0.1 ng/mL, with a coefficient of variation and deviation from nominal concentration of <15%.

RAR-A = target: T1, RAR-A (Homo sapiens, UniProt P10276); test: RAR-alpha activity; type: cell-based
T1 sequence (P10276 1-462): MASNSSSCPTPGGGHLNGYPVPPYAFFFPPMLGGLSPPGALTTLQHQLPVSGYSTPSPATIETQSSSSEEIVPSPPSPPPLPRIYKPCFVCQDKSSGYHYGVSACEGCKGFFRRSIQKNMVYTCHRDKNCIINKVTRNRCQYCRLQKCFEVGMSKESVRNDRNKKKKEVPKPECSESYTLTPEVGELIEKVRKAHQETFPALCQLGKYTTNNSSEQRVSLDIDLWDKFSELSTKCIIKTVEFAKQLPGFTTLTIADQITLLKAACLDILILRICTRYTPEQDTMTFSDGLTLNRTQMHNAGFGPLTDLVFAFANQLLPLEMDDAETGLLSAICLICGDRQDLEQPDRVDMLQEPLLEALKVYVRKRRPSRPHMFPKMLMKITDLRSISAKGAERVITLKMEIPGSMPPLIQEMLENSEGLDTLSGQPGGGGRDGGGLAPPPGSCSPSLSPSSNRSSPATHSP

[7] = Body weight effect on plasma tazarotenic acid Cmax and AUC (Example 7); type: in vivo, human; conditions: 6 mg tazarotene daily, day 9
Method: as §1, with “<15%. […]” for “<15%.”

[8] = topical administration of tazarotene; cited from earlier work

CC1(C)CC[S+]([O-])c2ccc(C#Cc3ccc(C(=O)O)cn3)cc21 (stereo not drawn) [AGN 190844]
activation of RARs (RARs): does not activate
activation of RXRs (RXRs): does not activate

COc1cc(C)c(/C=C/C(C)=C/C=C/C(C)=C/C(=O)O)c(C)c1C [Acitretin, acitretin]
bioavailability in the presence of food [1]: bioavailability is increased in the presence of food
Alopecia [2]: 319 (60.8) NUMBER OF (%) OF PATIENTS
Arthralgia [2]: 102 (19.4) NUMBER OF (%) OF PATIENTS
Atrophy of skin [2]: 64 (12.2) NUMBER OF (%) OF PATIENTS
Back pain [2]: 41 (7.8) NUMBER OF (%) OF PATIENTS
Cheilitis [2]: 429 (81.7) NUMBER OF (%) OF PATIENTS
Dry Skin [2]: 174 (33.1) NUMBER OF (%) OF PATIENTS
Dry mouth/Oral dryness [2]: 76 (14.5) NUMBER OF (%) OF PATIENTS
Epistaxis [2]: 61 (11.6) NUMBER OF (%) OF PATIENTS
Erythematous rash/Erythema [2]: 57 (10.9) NUMBER OF (%) OF PATIENTS
Hyperesthesia [2]: 66 (12.6) NUMBER OF (%) OF PATIENTS
Nail Disorder [2]: 170 (32.4) NUMBER OF (%) OF PATIENTS
Paresthesia [2]: 56 (10.7) NUMBER OF (%) OF PATIENTS
Paronychia/Nail disorder [2]: 66 (12.6) NUMBER OF (%) OF PATIENTS
Pruritus [2]: 157 (29.9) NUMBER OF (%) OF PATIENTS
Rhinitis [2]: 153 (29.1) NUMBER OF (%) OF PATIENTS
Rigors/Chills [2]: 67 (12.8) NUMBER OF (%) OF PATIENTS
Skin peeling/Desquamation [2]: 345 (65.7) NUMBER OF (%) OF PATIENTS
Sticky skin/Skin disorder [2]: 129 (24.6) NUMBER OF (%) OF PATIENTS
Xerophthalmia/Eye disorder [2]: 112 (21.3) NUMBER OF (%) OF PATIENTS
bioavailability in relation to body weight [3]: increased with a reduced body weight
effect on contraceptive effect of microdosed progestin preparations ([4]; in vivo): interferes with the contraceptive effect

CC1=C(/C=C/C(C)=C/C=C/C(C)=C\C(=O)O)C(C)(C)CCC1 [Isotretinoin, isotretinoin]
bioavailability in the presence of food [1]: bioavailability is increased in the presence of food
total dose needed to reach the same peak blood concentration in the fasted state as following a high fat meal [1]: more than doubled
Cheilitis [5]: 472 (90.2) NUMBER OF (%) OF PATIENTS
Conjunctivitis [5]: 201 (38.4) NUMBER OF (%) OF PATIENTS
Desquamation central face/Desquamation [5]: 187 (35.8) NUMBER OF (%) OF PATIENTS
Dry Skin [5]: 172 (32.9) NUMBER OF (%) OF PATIENTS
Dry nose [5]: 136 (26.0) NUMBER OF (%) OF PATIENTS
Epistaxis [5]: 121 (23.1) NUMBER OF (%) OF PATIENTS
Fingertip peeling/Desquamation [5]: 63 (12.0) NUMBER OF (%) OF PATIENTS
Headache [5]: 44 (8.4) NUMBER OF (%) OF PATIENTS
Irritation of eyes [5]: 85 (16.3) NUMBER OF (%) OF PATIENTS
Pruritus [5]: 127 (24.3) NUMBER OF (%) OF PATIENTS
Red Scaly face/Desquamation [5]: 54 (10.3) NUMBER OF (%) OF PATIENTS
Skin fragility/Skin disorder [5]: 164 (31.4) NUMBER OF (%) OF PATIENTS
bioavailability in relation to body weight [3]: increased with a reduced body weight
decrease in sebum secretion rate (sebaceous glands): about 90%
effect on blood concentrations of coadministered contraceptive components ([4]; coadministered contraceptive tablets): decreases blood concentrations of both ethinyl estradiol and norethindrone

C=C(c1ccc(C(=O)O)cc1)c1cc2c(cc1C)C(C)(C)CCC2(C)C [bexarotene]
bioavailability in the presence of food [1]: bioavailability is increased in the presence of food
effect on plasma concentration of coadministered tamoxifen ([4]; coadministration with tamoxifen): reduced plasma concentration of tamoxifen

CCOC(=O)/C=C(C)/C=C/C=C(C)/C=C/c1c(C)cc(OC)c(C)c1C [etretinate]
bioavailability in relation to body weight [3]: increased with a reduced body weight

CC1(C)CCSc2ccc(C#Cc3ccc(C(=O)O)cn3)cc21 [tazarotenic acid]
90% CI ratio of Cmax values ([6]; fed vs fasted): partially outside the 80-125% boundary
90% confidence intervals of AUC ratios (test/reference) ([6]; fed vs fasted): completely within the 80-125% boundary
average ratio of Cmax (test/reference) ([6]; fed vs fasted, Day 0): 1.00
average ratio of Cmax (test/reference) ([6]; fed vs fasted, Day 9): 0.829
effect of high-fat meal on bioavailability or pharmacokinetics of tazarotenic acid ([6]; within 30 minutes after high fat breakfast vs after 8-10 hour fast, single and multiple dose, healthy subjects): does not substantially affect
receptor specificity and selectivity (RARs): specificity for the RARs and selectivity for RAR-β and RAR-γ
activation of RXRs (RXRs): does not activate
RAR-A activity (RAR-A): minimal
correlation of Cmax or AUC with body weight [7]: no correlation between either Cmax or AUC and body weight
maximum blood concentration of tazarotenic acid [8]: less than 30 ng/ml
